IC50, Activity and inhibition data for 1 molecule are collected here from ChEMBL document CHEMBL5143521, “Identification of a selective BRD4 PROTAC with potent antiproliferative effects in AR-positive prostate cancer based on a dual BET/PLK1 inhibitor” (Eur J Med Chem, 2022).

Assay [1] has as its system PC-3. In words: Antiproliferative activity against AR-negative human castration resistant PC-3 cells assessed as reduction in cell viability measured after 4 days by MTT assay. The format is functional, cell-based. The note with it: PC-3, 96 h.
Assay [2] deals with VCaP. In words: Downregulation of BMPR1B gene expression in AR-positive human VCaP cells at 100 nM measured after 24 hrs by RT-qPCR analysis. It counts as functional, cell-based. For orientation: Real-time PCR tracks product formation cycle by cycle.
For assay [3], the target named is T1, Protein cereblon/Bromodomain-containing protein 4 (Homo sapiens) (UniProt O60885+Q96SW2). Kind of assay: Protac activity at BRD4/CRBN in AR-positive human 22Rv1 cells assessed as degradation of BRD4 at 100 nM measured after 3 hrs in presence of cycloheximide by Western blot analysis. It counts as cell-based. On the technique in general: Immunoblotting shows a protein as a band on a membrane.
T1 sequence (Q96SW2 whole entry, looked up, other chains not shown): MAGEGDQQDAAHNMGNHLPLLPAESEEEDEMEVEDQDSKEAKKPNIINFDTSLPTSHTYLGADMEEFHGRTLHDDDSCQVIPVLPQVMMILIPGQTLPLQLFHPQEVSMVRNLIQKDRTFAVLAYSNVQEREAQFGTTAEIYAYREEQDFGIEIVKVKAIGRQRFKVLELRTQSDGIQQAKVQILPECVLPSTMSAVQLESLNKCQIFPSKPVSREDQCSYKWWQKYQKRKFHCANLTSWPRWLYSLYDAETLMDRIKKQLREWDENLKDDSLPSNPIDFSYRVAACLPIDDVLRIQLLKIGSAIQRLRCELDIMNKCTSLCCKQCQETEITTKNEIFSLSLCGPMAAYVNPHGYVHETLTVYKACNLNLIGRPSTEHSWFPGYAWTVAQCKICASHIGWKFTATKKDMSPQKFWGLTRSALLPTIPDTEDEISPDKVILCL

For assay [4], the target named is T1, Protein cereblon/Bromodomain-containing protein 4 (Homo sapiens). In words: Protac activity at BRD4/CRBN in AR-positive human VCaP cells assessed as degradation of BRD4 by measuring downregulation of BRD4 expression level measured after 24 hrs by Western blot analysis. The format is cell-based. The note with it: dose 1-10000 nM, DDE = dose-dependent effect.

Assay [5] concerns CWR22R. Kind of assay: Induction of apoptosis in AR-positive human 22Rv1 cells assessed as increase in early apoptotic cells measured after 72 hrs by Annexin V-FITC/PI staining based flow cytometry method. It counts as functional, cell-based. The note with it: dose 100-1000 nM, DDE = dose-dependent effect. A general note: A flow cytometer gives signals particle by particle.
Assay [6] concerns the target T1, Protein cereblon/Bromodomain-containing protein 4 (Homo sapiens). Kind of assay: Protac activity at BRD4/CRBN in human VCaP cells assessed as degradation of BRD4 by measuring downregulation of BRD4 expression level at 10 nM incubated for 24 hrs by immunoblotting analysis. It counts as cell-based.
The target is the same in assay [7]. In words: Protac activity at BRD4/CRBN in AR-positive human VCaP cells assessed as degradation of BRD4 at 1 uM measured after 24 hrs in presence of MG-132 by Western blot analysis. It counts as cell-based.
In assay [8] the test system is LNCaP. Kind of assay: Antiproliferative activity against AR-positive harmone sensitive human LNCaP cells assessed as reduction in cell viability measured after 4 days by MTT assay. The note with it: 96 h. It counts as functional, cell-based.
The subject of assay [9] is VCaP. In words: Antiproliferative activity against AR-positive human VCaP cells assessed as reduction in cell viability measured after 4 days by MTT assay. It counts as functional, cell-based. The note with it: 96 h.
The target in assay [10] is T1, Protein cereblon/Bromodomain-containing protein 4 (Homo sapiens). In words: Protac activity at BRD4/CRBN in AR-positive harmone sensitive human LNCaP cells assessed as degradation of BRD4 by measuring downregulation of BRD4 expression level at 1 nM by Western blot analysis. The format is cell-based. The following applies: time 2-48 hrs, TDE = time-dependent effect.

Assay [11] has as its target Serine/threonine-protein kinase PLK1 (Homo sapiens, UniProt P53350). Kind of assay: Inhibition of PLK1 in AR-positive human 22Rv1 cells at 100 nM measured after 3 hrs in presence of cycloheximide by Western blot analysis. The format is cell-based.
In assay [12] the test system is CWR22R. Kind of assay: Induction of apoptosis in AR-positive human 22Rv1 cells assessed as upregulation of cleaved PARP level measured after 72 hrs by Annexin V-FITC/PI staining based flow cytometry method. It counts as functional, cell-based. The note with it: dose 100-1000 nM, DDE = dose-dependent effect.

Activity calls are given as the source filed them. The rule behind the calls is not given here.

Chain of Serine/threonine-protein kinase PLK1 (P53350 whole entry): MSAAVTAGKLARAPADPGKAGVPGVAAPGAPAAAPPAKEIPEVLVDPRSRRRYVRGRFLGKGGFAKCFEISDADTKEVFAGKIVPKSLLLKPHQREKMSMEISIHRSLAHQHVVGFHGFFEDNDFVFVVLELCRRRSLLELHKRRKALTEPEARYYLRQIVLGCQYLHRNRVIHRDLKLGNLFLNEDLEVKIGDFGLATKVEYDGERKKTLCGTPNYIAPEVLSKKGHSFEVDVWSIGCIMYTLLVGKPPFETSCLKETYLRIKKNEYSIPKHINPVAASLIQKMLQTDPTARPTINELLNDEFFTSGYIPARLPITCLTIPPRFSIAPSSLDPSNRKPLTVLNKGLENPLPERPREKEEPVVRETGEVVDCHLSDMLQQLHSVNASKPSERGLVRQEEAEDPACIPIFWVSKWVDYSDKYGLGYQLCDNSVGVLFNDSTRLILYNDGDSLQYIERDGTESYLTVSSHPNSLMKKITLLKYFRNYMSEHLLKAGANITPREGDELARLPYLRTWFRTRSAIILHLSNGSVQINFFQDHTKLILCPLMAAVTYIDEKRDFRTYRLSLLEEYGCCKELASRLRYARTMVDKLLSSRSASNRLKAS

For `CC[C@@H]1c2nnc(C)n2-c2cnc(Nc3ccc(C(=O)NC4CCN(C(=O)COc5cccc6c5C(=O)N(C5CCC(=O)NC5=O)C6=O)CC4)cc3OC)nc2N1CC1CCCCC1` (some centres not stated), the IC50 (commonly the concentration that gives 50% inhibition) in assay [1] was 2.44 µM; in assay [8], 0.021 µM; in assay [9], 0.016 µM. The outcome in [2], in [3], in assay [6] and in [7] was Active. The Activity result in [4] was “Dde”; in [5], “Dde”; in assay [10], “Tde”; in assay [12], “Dde”. In addition, the inhibition result in assay [11] was “Active”.
